Data taken from patent US8415469B2, “Compounds and methods for kinase modulation, and indications therefor” (Plexxikon Inc., priority 2005, dated 2013).

How the values were obtained:
Type in all cases: biochemical
Pyk2 = biological target: T1, Pyk2 (Homo sapiens, UniProt Q14289); test: AlphaScreen kinase assay, Pyk2; conditions: read-out: IC50, activity toward kinase Pyk2
T1 construct: purchased Upstate Biotechnology

Kit = biological target: T2, Kit (Homo sapiens, UniProt P10721); test: AlphaScreen kinase assay, Kit; conditions: read-out: IC50, activity toward kinase Kit
T2 construct: P1332.N6 BI PTP KIT M552-K948-X COD; His6 (N); made in house; host or cells: E. coli (PTP1B co-expressed)

Fms = biological target: T3, Fms (Homo sapiens, UniProt P07333); test: AlphaScreen kinase assay, Fms; conditions: read-out: IC50, activity toward kinase Fms
T3 construct: purchased Upstate Biotechnology

c-Raf-1 = biological target: T4, c-Raf-1 (Homo sapiens, UniProt P04049); test: AlphaScreen kinase assay, c-Raf-1; conditions: read-out: IC50, activity toward kinase c-Raf-1
T4 construct: purchased Upstate Biotechnology

B-Raf V600E = biological target: T5, B-Raf V600E (Homo sapiens, UniProt P15056, V600E); test: AlphaScreen kinase assay, B-Raf V600E; conditions: read-out: IC50, activity toward kinase B-Raf V600E
T5 construct: P4254. pFastBacBD-CDC37 BRAF D437-K722-X, V600E; His6 with pFastBac HT leader (TEV site) (N); made in house; host or cells: Sf9 (baculovirus; chaperone CDC37 co-expressed)

B-Raf = biological target: T6, B-Raf (Homo sapiens, UniProt P15056); test: AlphaScreen kinase assay, B-Raf; conditions: read-out: IC50, activity toward kinase B-Raf
T6 construct: purchased Upstate Biotechnology

Jnk2 = biological target: T7, Jnk2 (Homo sapiens, UniProt P45984); test: AlphaScreen kinase assay, Jnk2; conditions: read-out: IC50, activity toward kinase Jnk2
T7 construct: purchased Roche Protein Expression Group (Indianapolis, IN)
Outline: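 Bead-proximity format: phosphopeptide links anti-phospho antibody acceptor beads to streptavidin donor beads via biotin tag. Compounds were serially diluted 1:3 (8 points) from 20 mM stocks in DMSO.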

Jnk1 = biological target: T8, Jnk1 (Homo sapiens, UniProt P45983); test: AlphaScreen kinase assay, Jnk1; conditions: read-out: IC50, activity toward kinase Jnk1
T8 construct: purchased Upstate Biotechnology

Fak = biological target: T9, Fak (Homo sapiens, UniProt Q05397); test: AlphaScreen kinase assay, Fak; conditions: read-out: IC50, activity toward kinase Fak
T9 construct: P1358.pFastBacHtb FAK S411-Q686-X; His6 with pFastBacHTb leader (TEV site) (N); made in house; host or cells: Sf9 (baculovirus)
Text: AlphaScreen assay was used to screen additional kinases. The assay is similarly dependent on the phosphorylation of a peptide substrate. In this assay, an antibody that recognizes phosphorylated substrate is bound to an acceptor bead. The peptide substrate is attached to biotin, which binds to a donor head that contains streptavidin. Thus phosphorylated substrate is bound by antibody and streptavidin, bringing the donor and acceptor heads into close proximity when kinase is not inhibited. The donor produces singlet oxygen which results in emission from the acceptor when they are in close proximity. Conversely, when kinase is inhibited, the donor and acceptor beads are not associated and the emission from the acceptor is reduced.
AlphaScreen assays were done using compounds dissolved in DMSO to a concentration of 20 mM. The compounds were diluted accordingly to the desired final concentrations in each sample well, using 1:3 serial dilution for a total of 8 concentration points. Plates were prepared such that each kinase reaction is 20 μl in 1× kinase buffer, 5% DMSO and 10 μM ATP. After incubation of the kinase reaction for 1 hour at room temperature, 5 μl of donor beads in stop buffer (50 mM EDTA in 1× kinase buffer) was added, the sample was mixed and incubated for 20 minutes at room temperature before adding 5 μl of acceptor beads in stop buffer. The samples were incubated for 60 minutes at room temperature and the signal per well was read on AlphaQuest reader.

FGFR1 = biological target: T10, FGFR1 (Homo sapiens, UniProt P11362, C488A/C584S); test: AlphaScreen kinase assay, FGFR1; conditions: read-out: IC50, activity toward kinase FGFR
T10 construct: P1351.pET N6 BI-PTP FGFR A458-E765-X C488A, C584S; made in house; host or cells: E. coli (PTP1B co-expressed)

Src = biological target: T11, Src (Homo sapiens, UniProt P12931); test: AlphaScreen kinase assay, Src; conditions: read-out: IC50, activity toward kinase Src
T11 construct: P1144. pET-N6 BI-PTP SRC V86-L536-X; made in house

Btk = biological target: T12, Btk (Homo sapiens, UniProt Q06187); test: Z'-Lyte FRET kinase assay (Invitrogen), Btk; conditions: read-out: IC50, activity toward kinase Btk
T12 construct: purchased Invitrogen (assay run by Invitrogen)

Jnk3 = biological target: T13, Jnk3 (Homo sapiens, UniProt P53779); test: AlphaScreen kinase assay, Jnk3; conditions: read-out: IC50, activity toward kinase Jnk3
T13 construct: purchased Upstate Biotechnology

Flt1 = biological target: T14, Flt1 (Homo sapiens, UniProt P17948); test: AlphaScreen kinase assay, Flt1; conditions: read-out: IC50, activity toward kinase Flt1
T14 construct: P1826.pETN6 BI-PTP FLT1 M799-D1165-X WT; His6 (N); made in house; host or cells: E. coli (PTP1B co-expressed)
T14 sequence (P17948 with tags, fused parts or gaps): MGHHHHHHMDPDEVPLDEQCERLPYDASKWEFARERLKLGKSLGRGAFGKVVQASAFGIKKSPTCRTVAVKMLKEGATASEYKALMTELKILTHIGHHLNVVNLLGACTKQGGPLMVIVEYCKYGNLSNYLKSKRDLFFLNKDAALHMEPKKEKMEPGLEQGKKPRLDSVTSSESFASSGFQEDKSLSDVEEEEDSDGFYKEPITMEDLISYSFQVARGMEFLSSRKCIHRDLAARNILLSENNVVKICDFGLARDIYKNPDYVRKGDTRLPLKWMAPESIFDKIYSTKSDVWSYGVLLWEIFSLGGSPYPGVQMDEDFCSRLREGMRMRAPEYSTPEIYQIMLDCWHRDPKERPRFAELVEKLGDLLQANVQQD

Ret = biological target: T15, Ret (Homo sapiens, UniProt P07949); test: AlphaScreen kinase assay, Ret; conditions: read-out: IC50, activity toward kinase Ret
T15 construct: P1378.pET-SF BI-PTP RET H661-R1012 HIS; made in house
T15 sequence (P07949 with tags, fused parts or gaps): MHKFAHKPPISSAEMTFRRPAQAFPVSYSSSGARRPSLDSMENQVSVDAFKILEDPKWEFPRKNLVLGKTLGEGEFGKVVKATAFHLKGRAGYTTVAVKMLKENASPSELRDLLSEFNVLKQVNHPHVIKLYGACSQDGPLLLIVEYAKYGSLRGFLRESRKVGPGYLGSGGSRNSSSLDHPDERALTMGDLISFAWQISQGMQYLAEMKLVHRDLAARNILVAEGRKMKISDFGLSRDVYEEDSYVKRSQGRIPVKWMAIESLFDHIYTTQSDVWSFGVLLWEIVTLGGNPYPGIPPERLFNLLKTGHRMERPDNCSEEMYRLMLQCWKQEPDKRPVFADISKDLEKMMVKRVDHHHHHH

Kdr = biological target: T16, Kdr (Homo sapiens, UniProt P35968); test: Z'-Lyte FRET kinase assay (Invitrogen), Kdr; conditions: read-out: IC50, activity toward kinase Kdr
T16 construct: purchased Invitrogen (assay run by Invitrogen)

Measured: IC50

T4 sequence (P04049 whole entry): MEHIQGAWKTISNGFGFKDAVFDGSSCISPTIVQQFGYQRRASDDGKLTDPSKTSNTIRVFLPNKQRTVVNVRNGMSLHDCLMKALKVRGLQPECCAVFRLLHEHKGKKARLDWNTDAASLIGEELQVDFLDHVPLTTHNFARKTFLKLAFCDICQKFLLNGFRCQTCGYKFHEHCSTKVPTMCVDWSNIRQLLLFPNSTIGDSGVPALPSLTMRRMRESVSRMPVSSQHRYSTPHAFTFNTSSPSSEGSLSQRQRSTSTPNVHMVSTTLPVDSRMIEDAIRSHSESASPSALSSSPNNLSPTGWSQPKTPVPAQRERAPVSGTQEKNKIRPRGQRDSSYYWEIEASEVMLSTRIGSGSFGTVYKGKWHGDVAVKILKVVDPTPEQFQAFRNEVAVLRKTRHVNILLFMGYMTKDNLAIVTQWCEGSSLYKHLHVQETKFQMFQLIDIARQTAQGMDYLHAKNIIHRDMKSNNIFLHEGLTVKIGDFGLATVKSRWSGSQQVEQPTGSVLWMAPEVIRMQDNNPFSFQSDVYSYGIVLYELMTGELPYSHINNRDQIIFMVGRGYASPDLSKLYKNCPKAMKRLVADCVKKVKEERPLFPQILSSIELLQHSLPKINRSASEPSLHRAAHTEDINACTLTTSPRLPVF
T1 sequence (Q14289 whole entry): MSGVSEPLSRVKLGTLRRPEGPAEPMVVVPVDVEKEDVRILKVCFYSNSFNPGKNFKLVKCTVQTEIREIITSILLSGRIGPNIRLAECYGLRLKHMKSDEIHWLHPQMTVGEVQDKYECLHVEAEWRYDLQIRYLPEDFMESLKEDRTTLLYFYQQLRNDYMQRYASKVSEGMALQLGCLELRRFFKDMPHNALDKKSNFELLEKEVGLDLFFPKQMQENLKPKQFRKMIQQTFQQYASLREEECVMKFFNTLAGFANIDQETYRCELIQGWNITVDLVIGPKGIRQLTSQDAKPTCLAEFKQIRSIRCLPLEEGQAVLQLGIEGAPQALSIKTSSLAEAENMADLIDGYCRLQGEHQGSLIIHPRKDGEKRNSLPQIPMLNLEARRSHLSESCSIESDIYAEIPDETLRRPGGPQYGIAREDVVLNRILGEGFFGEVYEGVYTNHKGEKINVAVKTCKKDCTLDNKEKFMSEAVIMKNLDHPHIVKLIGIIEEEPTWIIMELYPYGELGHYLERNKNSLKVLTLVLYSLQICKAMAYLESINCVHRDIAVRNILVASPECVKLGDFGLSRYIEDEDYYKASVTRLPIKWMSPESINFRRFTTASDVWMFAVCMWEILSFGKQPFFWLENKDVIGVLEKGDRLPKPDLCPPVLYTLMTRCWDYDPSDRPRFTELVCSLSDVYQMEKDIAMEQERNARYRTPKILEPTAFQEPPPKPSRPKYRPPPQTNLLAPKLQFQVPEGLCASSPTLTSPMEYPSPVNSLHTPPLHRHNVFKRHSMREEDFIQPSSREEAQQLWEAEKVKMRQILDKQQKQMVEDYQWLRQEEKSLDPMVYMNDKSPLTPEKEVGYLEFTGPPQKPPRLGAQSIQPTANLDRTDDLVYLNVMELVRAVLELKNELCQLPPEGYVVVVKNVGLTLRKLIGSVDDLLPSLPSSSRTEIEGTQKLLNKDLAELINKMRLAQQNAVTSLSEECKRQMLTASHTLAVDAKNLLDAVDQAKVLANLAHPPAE
T13 sequence (P53779 whole entry): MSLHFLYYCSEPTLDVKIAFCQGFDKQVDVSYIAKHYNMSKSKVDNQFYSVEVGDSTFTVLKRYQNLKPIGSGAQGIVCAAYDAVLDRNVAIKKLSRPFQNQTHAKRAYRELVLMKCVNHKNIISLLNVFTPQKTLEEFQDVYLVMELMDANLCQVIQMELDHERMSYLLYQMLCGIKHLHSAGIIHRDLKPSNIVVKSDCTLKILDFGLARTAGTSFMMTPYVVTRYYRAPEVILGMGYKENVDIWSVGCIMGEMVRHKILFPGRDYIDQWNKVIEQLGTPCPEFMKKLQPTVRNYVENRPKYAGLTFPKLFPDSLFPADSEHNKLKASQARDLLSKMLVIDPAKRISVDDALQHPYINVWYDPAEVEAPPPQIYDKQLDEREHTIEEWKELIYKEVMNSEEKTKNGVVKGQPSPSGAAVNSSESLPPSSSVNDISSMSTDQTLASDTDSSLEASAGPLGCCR
T10 sequence (P11362 458-765 C488A/C584S): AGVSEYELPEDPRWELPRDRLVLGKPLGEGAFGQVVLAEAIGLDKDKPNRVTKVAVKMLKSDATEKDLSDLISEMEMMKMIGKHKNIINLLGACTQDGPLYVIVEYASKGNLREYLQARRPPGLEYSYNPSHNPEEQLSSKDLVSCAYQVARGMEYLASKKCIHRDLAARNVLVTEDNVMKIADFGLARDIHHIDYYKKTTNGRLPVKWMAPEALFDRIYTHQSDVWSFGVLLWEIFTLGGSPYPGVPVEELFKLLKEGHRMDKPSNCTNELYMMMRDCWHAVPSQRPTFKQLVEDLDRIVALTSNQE
T5 sequence (P15056 with tags, fused parts or gaps V600E): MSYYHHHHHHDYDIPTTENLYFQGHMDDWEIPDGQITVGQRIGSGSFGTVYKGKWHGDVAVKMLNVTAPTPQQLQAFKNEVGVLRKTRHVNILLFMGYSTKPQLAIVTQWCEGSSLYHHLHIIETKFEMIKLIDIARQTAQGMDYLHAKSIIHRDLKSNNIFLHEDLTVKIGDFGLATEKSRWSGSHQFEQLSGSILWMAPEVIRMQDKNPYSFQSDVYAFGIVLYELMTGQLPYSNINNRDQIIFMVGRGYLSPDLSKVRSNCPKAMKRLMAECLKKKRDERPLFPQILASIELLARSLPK
T3 sequence (P07333 20-972): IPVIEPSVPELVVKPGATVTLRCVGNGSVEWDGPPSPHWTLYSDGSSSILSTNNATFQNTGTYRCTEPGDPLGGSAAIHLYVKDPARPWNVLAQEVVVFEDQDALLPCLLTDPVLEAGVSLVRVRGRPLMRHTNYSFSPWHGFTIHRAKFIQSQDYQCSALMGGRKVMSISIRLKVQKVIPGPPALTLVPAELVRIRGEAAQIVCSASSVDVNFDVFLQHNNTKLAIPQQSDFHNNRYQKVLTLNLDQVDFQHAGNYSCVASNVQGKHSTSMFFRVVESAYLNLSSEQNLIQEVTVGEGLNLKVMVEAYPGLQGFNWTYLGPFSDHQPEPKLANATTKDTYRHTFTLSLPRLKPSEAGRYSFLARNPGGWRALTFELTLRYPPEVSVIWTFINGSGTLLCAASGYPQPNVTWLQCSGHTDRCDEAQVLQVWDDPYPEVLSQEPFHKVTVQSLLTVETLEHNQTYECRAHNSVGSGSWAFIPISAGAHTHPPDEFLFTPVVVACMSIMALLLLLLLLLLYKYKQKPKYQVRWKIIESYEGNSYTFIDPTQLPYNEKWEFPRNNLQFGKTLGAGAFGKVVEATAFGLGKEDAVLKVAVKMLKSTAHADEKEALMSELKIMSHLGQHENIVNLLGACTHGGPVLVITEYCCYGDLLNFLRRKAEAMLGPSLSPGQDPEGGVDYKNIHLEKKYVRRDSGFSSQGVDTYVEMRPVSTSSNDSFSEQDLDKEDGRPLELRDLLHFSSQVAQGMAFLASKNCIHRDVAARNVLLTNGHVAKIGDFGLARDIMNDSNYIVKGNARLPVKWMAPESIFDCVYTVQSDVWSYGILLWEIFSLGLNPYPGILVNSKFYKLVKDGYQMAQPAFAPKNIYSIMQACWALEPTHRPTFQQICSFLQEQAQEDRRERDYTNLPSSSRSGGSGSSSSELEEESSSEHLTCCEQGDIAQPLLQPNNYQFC
T2 sequence (P10721 with tags, fused parts or gaps): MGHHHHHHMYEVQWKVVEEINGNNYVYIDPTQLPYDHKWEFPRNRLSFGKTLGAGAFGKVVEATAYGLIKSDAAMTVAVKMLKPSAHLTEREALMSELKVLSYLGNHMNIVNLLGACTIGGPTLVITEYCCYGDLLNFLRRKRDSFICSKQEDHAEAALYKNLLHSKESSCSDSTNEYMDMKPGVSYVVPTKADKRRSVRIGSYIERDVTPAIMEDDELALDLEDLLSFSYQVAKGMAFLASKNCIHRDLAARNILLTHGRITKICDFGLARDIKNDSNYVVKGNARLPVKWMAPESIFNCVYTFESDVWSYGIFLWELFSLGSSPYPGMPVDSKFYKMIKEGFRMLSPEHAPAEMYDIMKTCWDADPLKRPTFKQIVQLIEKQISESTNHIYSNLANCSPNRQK
T6 sequence (P15056 whole entry): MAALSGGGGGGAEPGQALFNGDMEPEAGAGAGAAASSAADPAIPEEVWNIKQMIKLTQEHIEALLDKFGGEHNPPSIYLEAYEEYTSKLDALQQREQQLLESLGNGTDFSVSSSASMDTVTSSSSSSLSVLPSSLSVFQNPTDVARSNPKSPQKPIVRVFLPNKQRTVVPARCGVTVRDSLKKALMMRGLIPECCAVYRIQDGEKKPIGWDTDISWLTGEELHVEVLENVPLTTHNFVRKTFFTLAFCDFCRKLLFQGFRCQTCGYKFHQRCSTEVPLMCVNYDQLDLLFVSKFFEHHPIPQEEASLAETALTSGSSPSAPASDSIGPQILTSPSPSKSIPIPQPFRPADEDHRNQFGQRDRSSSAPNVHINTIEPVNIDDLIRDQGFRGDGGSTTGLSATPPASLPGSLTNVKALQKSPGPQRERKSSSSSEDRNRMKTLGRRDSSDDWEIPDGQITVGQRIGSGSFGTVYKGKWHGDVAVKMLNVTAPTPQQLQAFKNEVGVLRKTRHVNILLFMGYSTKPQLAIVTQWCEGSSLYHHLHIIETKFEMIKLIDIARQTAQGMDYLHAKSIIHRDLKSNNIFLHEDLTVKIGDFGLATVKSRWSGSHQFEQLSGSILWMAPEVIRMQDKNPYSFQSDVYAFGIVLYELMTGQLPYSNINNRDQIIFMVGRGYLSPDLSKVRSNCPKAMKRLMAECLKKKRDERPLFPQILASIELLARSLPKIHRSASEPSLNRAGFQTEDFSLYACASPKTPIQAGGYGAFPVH

Cc1cc(Nc2ccc3cc[nH]c3n2)no1 [Compound P-1376, (5-Methyl-isoxazol-3-yl)-(1H-pyrrolo[2,3-b]pyridin-6-yl)-amine]
≤ 10 µM: Pyk2 | Kit | Fms

CCCS(=O)(=O)Nc1ccc(F)c(C(O)c2c[nH]c3ncc(Nc4ccccc4)cc23)c1F (stereo not drawn) [Compound P-0928]
≤ 10 µM: c-Raf-1 | B-Raf V600E | B-Raf | Pyk2

CCCCNC(=O)n1ccc2c(C(=O)c3c[nH]c4ncc(-c5cccnc5)cc34)cccc21 [Compound P-1486, 4-(5-Pyridin-3-yl-1H-pyrrolo[2,3-b]pyridine-3-carbonyl)-indole-1-carboxylic acid butylamide]
not listed: Pyk2 | c-Raf-1 | Ret | Kdr
≤ 10 µM: all other assays above

CCCS(=O)(=O)Nc1ccc(F)c(Cc2c[nH]c3ncc(N4CCOCC4)cc23)c1F [Compound P-0964, Propane-1-sulfonic acid [2,4-difluoro-3-(5-morpholin-4-yl-1H-pyrrolo[2,3-b]pyridin-3-ylmethyl)-phenyl]-amide]
≤ 10 µM: c-Raf-1 | B-Raf V600E | FGFR1 | Pyk2 | Kit

CCCS(=O)(=O)Nc1ccc(F)c(C(=O)c2c[nH]c3ncc(-c4ccc(C(F)(F)F)cc4)cc23)c1F [Compound P-0912, Propane-1-sulfonic acid {2,4-difluoro-3-[5-(4-trifluoromethyl-phenyl)-1H-pyrrolo[2,3-b]pyridine-3-carbonyl]-phenyl}-amide]
≤ 10 µM: c-Raf-1 | B-Raf V600E | B-Raf | FGFR1 | Pyk2

COC(c1c(F)ccc(NS(=O)(=O)C(C)C)c1F)c1c[nH]c2ncc(Br)cc12 (stereo not drawn) [Compound P-0356, Propane-2-sulfonic acid {3-[(5-bromo-1H-pyrrolo[2,3-b]pyridin-3-yl)-methoxy-methyl]-2,4-difluoro-phenyl}-amide]
≤ 10 µM: c-Raf-1 | B-Raf V600E | B-Raf | Pyk2

CCCS(=O)(=O)Oc1ccc(F)c(C(=O)c2c[nH]c3ncc(Br)cc23)c1F [Compound P-0919, propane-1-sulfonic acid 3-(5-bromo-1H-pyrrolo[2,3-b]pyridine-3-carbonyl)-2,4-difluoro-phenyl ester]
≤ 10 µM: c-Raf-1 | B-Raf V600E | B-Raf | FGFR1 | Pyk2 | Kit | Fms

c1ccc(N2CCOCC2)c(Nc2ccc3cc[nH]c3n2)c1 [Compound P-1377, (2-Morpholin-4-yl-phenyl)-(1H-pyrrolo[2,3-b]pyridin-6-yl)-amine]
≤ 10 µM: FGFR1 | Pyk2

CC(=O)Nc1ccc(F)c(C(O)c2c[nH]c3ncc(-c4cccnc4)cc23)c1F (stereo not drawn) [Compound P-1069]
≤ 10 µM: B-Raf V600E | Pyk2

OC(c1ccccc1OCc1ccccc1)c1c[nH]c2ncc(Br)cc12 (stereo not drawn) [Compound P-1380]
≤ 10 µM: FGFR1 | Pyk2 | Kit | Fms

CC(=O)c1cccc(-c2ccnc3[nH]ccc23)c1 [Compound P-0116]
≤ 10 µM: Ret | Pyk2

CCCNC(=O)Nc1ccc(F)c(C(=O)c2c[nH]c3ncc(-c4cccnc4)cc23)c1F [Compound P-0774, 1-[2,4-difluoro-3-(5-pyridin-3-yl-1H-pyrrolo[2,3-b]pyridine-3-carbonyl)-phenyl]-3-propyl-urea]
not listed: Pyk2 | Btk | Ret | Kdr
≤ 10 µM: all other assays above

Clc1cccc(Nc2ccc3cc[nH]c3n2)c1 [Compound P-1373, (3-Chloro-phenyl)-(1H-pyrrolo[2,3-b]pyridin-6-yl)-amine]
≤ 10 µM: Pyk2 | Flt1

COC(c1c(F)ccc(NS(=O)(=O)C(C)C)c1F)c1c[nH]c2ncc(-c3cccnc3)cc12 (stereo not drawn) [Compound P-0947, Propane-2-sulfonic acid {2,4-difluoro-3-[methoxy-(5-pyridin-3-yl-1H-pyrrolo[2,3-b]pyridin-3-yl)-methyl]-phenyl}-amide]
≤ 10 µM: c-Raf-1 | B-Raf V600E | B-Raf | FGFR1 | Pyk2

CCCS(=O)(=O)Nc1ccc(F)c(C(OC)c2c[nH]c3ncc(-c4ccccc4)cc23)c1F (stereo not drawn) [Compound P-0957]
≤ 10 µM: c-Raf-1 | B-Raf V600E | Pyk2

CCCC(=O)Nc1ccc(F)c(C(O)c2c[nH]c3ncc(OC)cc23)c1F (stereo not drawn) [Compound P-1367]
≤ 10 µM: FGFR1 | Pyk2 | Kit

Clc1ccccc1Nc1ccc2cc[nH]c2n1 [Compound P-1375, (2-Chloro-phenyl)-(1H-pyrrolo[2,3-b]pyridin-6-yl)-amine]
≤ 10 µM: Pyk2 | Jnk3

O=C(c1ccc(O)cc1Cl)c1c[nH]c2ncc(Br)cc12 [Compound P-0137]
≤ 10 µM: c-Raf-1 | B-Raf V600E | Ret | Kdr | FGFR1 | Pyk2

COc1cccc(Cc2c[nH]c3ncc(-c4ccc(C(N)=O)cc4)cc23)c1 [Compound P-0697]
≤ 10 µM: Ret | B-Raf | FGFR1 | Pyk2 | Kit | Jnk3

CCCS(=O)(=O)Nc1ccc(F)c(C(O)c2c[nH]c3ncc(-c4ccccc4)cc23)c1F (stereo not drawn) [Compound P-0946]
≤ 10 µM: c-Raf-1 | B-Raf V600E | B-Raf | Pyk2

CCCC(=O)Nc1ccc(F)c(C(OC)c2c[nH]c3ncc(OC)cc23)c1F (stereo not drawn) [Compound P-1368]
≤ 10 µM: B-Raf V600E | Pyk2 | Kit | Fms

NC(=O)c1cccc(-c2cnc3[nH]cc(Cc4ccccc4OCc4ccccc4)c3c2)c1 [Compound P-1381]
≤ 10 µM: B-Raf V600E | FGFR1 | Pyk2 | Fms

Brc1cnc2[nH]cc(Cc3ccccc3OCc3ccccc3)c2c1 [Compound P-1379]
≤ 10 µM: Pyk2
